In patent US6764829B2, “Nucleoside hydrolase and nucleoside phosphorylase detection kits, dipsticks and substrates” (Albert Einstein College of Medicine of Yeshiva University, priority 1996, dated 2004):
Read-outs that look alike come from different tables or passages of the source.

Key:
[1] = target: T1, IAG-nucleoside hydrolase (Trypanosoma brucei, UniProt Q57ZL6); test: Kinetic parameters with nitrophenylriboside and purine substrate (Table 1); format: biochemical
T1 sequence (Q57ZL6 1-327): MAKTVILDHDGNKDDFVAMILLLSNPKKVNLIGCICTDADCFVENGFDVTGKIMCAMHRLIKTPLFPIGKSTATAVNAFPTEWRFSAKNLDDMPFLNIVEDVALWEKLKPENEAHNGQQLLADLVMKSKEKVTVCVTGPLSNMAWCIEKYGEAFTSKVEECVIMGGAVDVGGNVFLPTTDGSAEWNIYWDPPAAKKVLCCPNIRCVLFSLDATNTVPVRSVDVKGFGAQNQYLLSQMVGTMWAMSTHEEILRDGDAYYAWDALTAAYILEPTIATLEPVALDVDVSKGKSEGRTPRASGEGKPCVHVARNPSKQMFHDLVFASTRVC
Description: (§1) In this Example kinetic parameters for different enzymes were compared using nitrophenylriboside or a purine substrate. […] The E. coli and bovine spleen enzymes tested were ineffective in hydrolysing the substrate. The striking ability of one of the protozoan parasite enzymes to hydrolyse the substrate provides the basis for an assay for the protozoan parasites (see Example 22).

[2] = target: T2, IU-nucleoside hydrolase (Crithidia fasciculata, UniProt Q27546); test: as above; format: biochemical
T2 sequence (Q27546 1-315): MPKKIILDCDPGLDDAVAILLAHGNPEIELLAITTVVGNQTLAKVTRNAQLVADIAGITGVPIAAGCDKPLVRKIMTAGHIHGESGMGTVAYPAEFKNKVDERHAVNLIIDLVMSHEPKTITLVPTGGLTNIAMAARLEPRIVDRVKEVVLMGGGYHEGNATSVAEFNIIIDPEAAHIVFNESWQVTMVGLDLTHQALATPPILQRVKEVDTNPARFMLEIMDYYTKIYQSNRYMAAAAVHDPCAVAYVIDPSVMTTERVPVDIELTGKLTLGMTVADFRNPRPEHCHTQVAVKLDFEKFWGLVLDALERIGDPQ
Description: as §1

[3] = system: GI-nucleoside hydrolase; test: as above; format: biochemical, Crithidia fasciculata
Description: as §1

[4] = target: T3, AMP nucleosidase (Escherichia coli, UniProt P0AE12); test: Kinetic parameters with nitrophenylriboside 5-phosphate and purine substrate (Table 1); format: biochemical, E coli; settings: summary of Table 1
Description: as §1

[5] = system: blood from mice infected with Trypanosoma cruzi; test: Rate of hydrolysis of nitrophenyl riboside with control or infected mouse blood; format: biochemical; settings: for rate of hydrolysis: 0.24 mM substrate, 50 mM HEPES pH 8.0, 30° C., 400 nm
Description: The utility of nitrophenylriboside as a substrate for detecting protozoan infections using the presence of nucleoside hydrolases was tested using blood from mice infected with Trypanosoma cruzi, the causitive agent of Chagas disease (Table 2). […] The values obtained from the assay from the infected mice were strikingly elevated above those of the uninfected controls.

[6] = target: T2, IU-nucleoside hydrolase; test: Comparison of β-D-ribofuranoside substrates with IU-nucleoside hydrolase (Table 3); format: biochemical
Description: (§2) The enzymes used were highly purified samples from Crithidia fasciculata (IU-nucleoside hydrolase) and Trypanosoma brucei brucei (IAG-nucleoside hydrolase), available as stock solutions of approximately 20 mg protein/mL.
(§3) Each reaction was conducted in a quartz cuvette with a 1 cm path length, placed in the observation chamber of a UV spectrophotometer, and in a total reaction volume of 600 μL. The temperature was adjusted by use of a circulating water bath, set so that the cuvette temperature equilibrated to 30° C. in about 5 minutes.
(§4) The β-D-ribofuranoside substrates were dissolved in aqueous buffer: 50 mM CHES for reactions at pH 10, 50 mM HEPES for reactions at pH 8. […] For the remaining reactions catalysed by IAG hydrolase, a single substrate concentration of between 100 and 300 μM was used.
(§5) The absorbance of each reaction mixture was monitored at or near the absorption maximum for the phenolic aglycon (as shown in Table 3). Monitoring began 5-10 minutes before the enzyme was added to determine if the substrate was stable under the reaction conditions.
(§6) Data were fitted to the Michaelis-Menton equation using kaleidagraph, and the resulting kinetic parameters along with other relevant data are summarized in Table 3.

[7] = target: T1, IAG-nucleoside hydrolase; test: Comparison of β-D-ribofuranoside substrates with IAG-nucleoside hydrolase (Table 3); format: biochemical; settings: for IAG NH rate: at 200 μM substrate
Description: as §2, §3, §4, §5, §6

[8] = system: Giardia intestinalis (Portland 1 strain); test: Hydrolysis of substrates by Giardia intestinalis supernatants; format: biochemical; settings: 0.24 mM substrate, 50 mM HEPES pH 8
Description: Giardia intestinalis (Portland 1 strain) was grown for 2 days in TYI-33 medium supplemented with 5 mM arginine, harvested and washed. A suspension containing 2.91×10^8 cells of Giardia intestinalis in 1 mL of aqueous HEPES buffer (40 mM. pH 7) was mixed with 1 mL of aqueous HEPES buffer (40 mM, pH 7) containing 0.1 mM protease inhibitor E-64 and sonicated (Branson sonicator, duty cycle 40, output 2.5), for 2-3 min in ice. The suspension was then centrifuged in a Beckman microfuge for 10 mins at 4° C., and the supernatant decanted.
A second suspension of 2.91×10^8 cells of Giardia intestinalis in 1 mL of aqueous HEPES buffer (40 mM, pH 7) was mixed with 1 mL of 0.5% aqueous Triton X-100, left at 4° C. overnight, and the supernatant was decanted.
Aliquots (between 2 and 100 μL) of each of these supernatants were made up to a volume of 1 mL of water containing 50 mM HEPES buffer at pH 8, 0.24 mM 4-nitrophenyl β-D-ribofuranoside or 4-pyridyl β-D-ribofuranoside. The release of the aglycon was monitored by absorption spectrometry at 400 nm or 253 nm, respectively.
Protein was determined by Lowry method (ie Folin reaction).

[9] = system: T. vaginalis; test: Hydrolysis of substrates by T. vaginalis extract; format: biochemical; settings: Triton X-100 extract; determined as in Example 24
Description: T. vaginalis was grown for 2 days in TYM medium, harvested, and washed. […] The ability of the extract to hydrolyse substrates was determined as in Example 24. For 4-nitrophenyl β-D-ribofuranoside, the activity was 165 nmoles.min^−1 per 10^8 cells, corresponding to an activity for the enzyme of 9 nmoles.min^−1.(mg protein)^−1. For 4-pyridyl β-D-ribofuranoside, the activity was 74 nmoles.min^−1 per […] corresponding to an activity for the enzyme of 4 nmoles.min^−1.(mg protein)^−1.

[10] = target: T4, Purine nucleoside phosphorylase (Bos taurus, UniProt P55859); test: Kinetic parameters (phosphorolysis) with nitrophenylriboside and purine substrate (Table 1); format: biochemical, bovine; design: The E. coli and bovine spleen enzymes tested; from tissue; host or cells: bovine spleen
T4 sequence (P55859 1-289): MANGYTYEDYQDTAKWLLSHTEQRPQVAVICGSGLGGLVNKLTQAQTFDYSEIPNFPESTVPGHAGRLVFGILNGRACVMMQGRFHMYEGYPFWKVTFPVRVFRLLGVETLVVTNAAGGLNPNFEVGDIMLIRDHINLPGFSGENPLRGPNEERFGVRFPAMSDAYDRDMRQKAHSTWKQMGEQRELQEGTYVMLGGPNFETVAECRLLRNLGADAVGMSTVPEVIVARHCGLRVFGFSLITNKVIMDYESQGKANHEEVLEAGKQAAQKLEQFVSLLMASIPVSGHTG
Description: as §1

[11] = target: T2, IU-nucleoside hydrolase; settings: purine substrate; cited from earlier work
[12] = target: T1, IAG-nucleoside hydrolase; settings: purine substrate; cited from earlier work
[13] = target: T4, Purine nucleoside phosphorylase; design: bovine spleen enzymes tested; from tissue; host or cells: bovine spleen; settings: purine substrate; cited from earlier work
[14] = target: T3, AMP nucleosidase; settings: purine substrate; cited from earlier work
[15] = system: GI-nucleoside hydrolase; settings: purine substrate; cited from earlier work
[16] = Stability of substrate under the reaction conditions before enzyme was added; format: physicochemical; settings: pH 10, 30° C., monitored 5-10 minutes before the enzyme was added
Description: as §5

[17] = kcat/Km for nitrophenylriboside to that for inosine
[18] = nitrophenylriboside as substrate, pH 8.0 in 50 mM HEPES, 30° C.
[19] = listed as 2-(5-nitropyridyl) riboside

T3 sequence (P0AE12 whole entry): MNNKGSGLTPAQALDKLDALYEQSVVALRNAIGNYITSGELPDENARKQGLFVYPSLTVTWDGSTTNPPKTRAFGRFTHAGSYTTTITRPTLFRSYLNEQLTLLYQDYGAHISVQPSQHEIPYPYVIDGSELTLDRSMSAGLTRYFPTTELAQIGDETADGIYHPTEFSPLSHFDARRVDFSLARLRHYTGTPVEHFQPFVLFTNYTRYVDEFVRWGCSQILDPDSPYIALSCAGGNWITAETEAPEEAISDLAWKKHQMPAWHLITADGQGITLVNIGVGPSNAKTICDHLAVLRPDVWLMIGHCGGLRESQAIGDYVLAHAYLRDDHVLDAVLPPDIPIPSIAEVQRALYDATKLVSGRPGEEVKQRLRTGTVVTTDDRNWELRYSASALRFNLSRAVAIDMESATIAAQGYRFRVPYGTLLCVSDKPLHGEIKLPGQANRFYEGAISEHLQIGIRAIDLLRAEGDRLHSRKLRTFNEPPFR

Compound: O=[N+]([O-])c1ccc(O[C@@H]2O[C@H](CO)[C@@H](O)[C@H]2O)cc1 [Example 1, p-nitrophenyl β-D-ribofuranoside]
- kcat/Km ratio [1, 17]: 8 × 10^−4
- substrate quality in words ([1]; summary of Table 1): relatively poor
- kcat/Km ratio [2, 17]: 54
- substrate quality in words ([2]; summary of Table 1): good substrate
- kcat/Km ratio ([3]; kcat/Km for nitrophenylriboside to that for guanosine): 4 × 10^−5
- Km [3, 18]: 468 µM
- kcat [3, 18]: 0.07 s⁻¹
- substrate quality in words [4]: ineffective
- detection of nucleoside hydrolase in words ([5]; blood lysate prepared from one microliter of infected blood): readily detects the presence of the nucleoside hydrolase
- rate of hydrolysis ([5]; mouse blood infected, T cruzi var Brazil): 4.6 ± 0.5 (3) pmol/min/mg
- rate of hydrolysis ([5]; mouse blood infected, T cruzi var Tulahuen): 3.9 ± 0.5 (4) pmol/min/mg
- rate of hydrolysis ([5]; uninfected control mouse blood): 0.7 ± 0.8 (11) pmol/min/mg
- substrate quality in words [6]: good substrates
- substrate quality in words ([6]; listed as p-nitrophenylriboside): particularly good substrate
- IAG NH rate ([7]; pH 10.0): 0.05 min⁻¹
- activity per cells [8]: 470 nmoles.min^−1 per 10^8 cells
- activity for the enzyme ([8]; protein by Lowry method): 70 nmoles.min^−1.(mg protein)^−1
- activity for the enzyme [9]: 9 nmoles.min^−1.(mg protein)^−1
- activity per cells [9]: 165 nmoles.min^−1 per 10^8 cells
- kcat/Km ratio [10, 17]: 1 × 10^−6
- substrate quality in words ([10]; summary of Table 1): ineffective

Compound: OC[C@H]1O[C@@H](n2cnc3c(O)ncnc32)[C@H](O)[C@@H]1O [inosine]
- kcat [11]: 28 s⁻¹
- Km [12]: 18 µM
- kcat [12]: 34 s⁻¹
- Km [13]: 19 µM
- kcat [13]: 12 s⁻¹

Compound: Nc1ncnc2c1ncn2[C@@H]1O[C@H](COP(=O)(O)O)[C@@H](O)[C@H]1O [AMP]
- Km [14]: 150 µM
- kcat [14]: 27 s⁻¹

Compound: Nc1nc2c(ncn2[C@@H]2O[C@H](CO)[C@@H](O)[C@H]2O)c(=O)[nH]1 [guanosine]
- Km [15]: 77 µM
- kcat [15]: 231 s⁻¹

Compound: O=[N+]([O-])c1ccc(O[C@@H]2O[C@H](CO)[C@@H](O)[C@H]2O)nc1 [Example 13, 2-(5-nitropyridyl) β-D-ribofuranoside]
- substrate quality in words [6]: good substrates
- IU NH kcat ([6]; At pH 10, 30° C.): 100 s⁻¹
- Km ([6]; At pH 10, 30° C., read-out: IU NH Km): 122 µM
- substrate quality in words [6, 19]: lower activity
- substrate quality in words [7]: good substrates
- IAG NH rate ([7]; pH 8.0): >100 min⁻¹
- IAG NH rate ([7]; pH 10.0): >100 min⁻¹
- substrate quality in words [7, 19]: substantially greater activity
- hydrolysis in the absence of enzyme [16]: hydrolysis observed in the absence of enzyme
